What was measured:
[1] = Hepatocyte Stability Assay, rat; format: in vitro ADME; settings: rat hepatocytes; also: tested at 1 µM
Experimental: • Preparation of working solutions: 10 mM stock solutions of test compound and positive control were prepared in DMSO. In separate conical tubes, the 10 mM solution of test compound and the positive control were diluted to 100 μM by combining 198 μL of 50% acetonitrile/50% water and 2 μL of 10 mM stock.
Preparation of Hepatocytes: Incubation medium (William's E Medium supplemented with GlutaMAX) and hepatocyte thawing medium were placed in a 37° C. water bath and allowed warming for at least 15 minutes prior to use. A vial of cryopreserved hepatocytes was transferred from storage, ensuring that vials remained at cryogenic temperatures until thawing process ensued. Cells were thawed by placing the vial in a 37° C. water bath and gently shaking the vials for 2 minutes. After thawing was completed, vial was sprayed with 70% ethanol and transferred to a biosafety cabinet. Wide-bore pipette tip were used to transfer hepatocytes into 50 mL conical tube containing thawing medium. The 50 mL conical tube were placed into a centrifuge and spun at 100 g for 10 minutes. Upon completion of spin, thawing medium was aspirated and resuspended hepatocytes in enough incubation medium to yield ˜1.5×10^6 cells/mL. Using an AO/PI Staining, cells were counted and the viable cell density was determined. Cells with poor viability (<75% viability) were determined to be not acceptable for use. Cells were diluted with incubation medium to a working cell density of 0.5×10^6 viable cells/mL.
Procedure for Stability Determination: 198 μL of hepatocytes were pipetted into each wells of a 96-well non-coated plate. The plate was placed in the incubator to allow the hepatocytes to warm for 10 minutes. 2 μL of the 100 μM test compound or positive control solutions were pipetted into respective wells of the 96-well non-coated plate to start the reaction. The plate was returned to the incubator for the designed time points. Well contents was transferred in 25 μL aliquots at time points of 0, 15, 30, 60, 90 and 120 minutes. The aliquots were then mixed with 6 volumes (150 μL) of acetonitrile containing internal standard, IS (100 nM alprazolam, 200 nM caffeine and 100 nM tolbutamide) to terminate the reaction. The mixture was vortex for 5 minutes. Samples were centrifuged for 45 minutes at 3,220 g. An aliquot of 100 μL of the supernatant was diluted by 100 μL ultra-pure water, and the mixture was used for LC/MS/MS analysis. All incubations were performed in duplicate.
Data Analysis: All calculations were carried out using Microsoft Excel. Peak areas were determined from extracted ion chromatograms. In vitro half-life (t1/2) of parent compound was determined by regression analysis of the percent parent disappearance vs. time curve.
The in vitro half-life (in vitro t1/2) was determined from the slope value:
Conversion of the in vitro t1/2 (in min) into the in vitro intrinsic clearance (in vitro CLint, in μL/min/1×10^6 cells) was done using the following equation (mean of duplicate determinations):
V=incubation volume(0.2 mL);
N=number of hepatocytes per well(0.1×10^6 cells).
“+++” indicates a CLint value less than 20 mL/min/Kg, “++” indicates a CLint between 20 and 50 mL/min/Kg, and “+” indicates an CLint above 50 mL/min/Kg.

AHR = target: T1, AHR (Homo sapiens, UniProt P35869); experiment: DRE-Luciferase Reporter Assay, HepG2 AhR-Lucia reporter cells; format: cell-based; settings: with AHR activating ligand at EC50, read-out: HepG2-Luc IC50
T1 construct: other cell line with a DRE-luciferase reporter stably transfected; endogenous in cells; host or cells: HepG2 AhR-Lucia reporter cells
T1 sequence (P35869 11-848): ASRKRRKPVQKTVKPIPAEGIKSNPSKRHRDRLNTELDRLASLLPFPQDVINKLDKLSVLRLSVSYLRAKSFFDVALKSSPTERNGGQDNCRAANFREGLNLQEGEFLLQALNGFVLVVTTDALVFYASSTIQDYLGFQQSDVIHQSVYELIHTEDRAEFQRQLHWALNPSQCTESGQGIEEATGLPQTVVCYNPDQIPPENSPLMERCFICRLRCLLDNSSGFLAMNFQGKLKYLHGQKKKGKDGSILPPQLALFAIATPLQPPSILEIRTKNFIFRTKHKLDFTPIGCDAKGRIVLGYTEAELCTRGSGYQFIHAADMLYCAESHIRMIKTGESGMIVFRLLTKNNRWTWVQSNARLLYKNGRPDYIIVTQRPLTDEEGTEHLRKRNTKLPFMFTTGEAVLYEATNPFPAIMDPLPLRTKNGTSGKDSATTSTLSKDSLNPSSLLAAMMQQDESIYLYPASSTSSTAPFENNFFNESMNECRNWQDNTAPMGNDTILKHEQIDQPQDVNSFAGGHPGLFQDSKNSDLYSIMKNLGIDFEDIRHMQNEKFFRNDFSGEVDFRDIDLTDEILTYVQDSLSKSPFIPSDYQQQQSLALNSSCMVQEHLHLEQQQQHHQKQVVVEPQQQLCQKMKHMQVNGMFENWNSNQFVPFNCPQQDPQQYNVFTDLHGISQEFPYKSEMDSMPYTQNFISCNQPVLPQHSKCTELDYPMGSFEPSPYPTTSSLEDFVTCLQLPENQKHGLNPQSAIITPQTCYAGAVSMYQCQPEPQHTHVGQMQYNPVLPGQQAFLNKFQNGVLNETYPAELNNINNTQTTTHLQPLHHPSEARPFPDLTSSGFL
In short: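 Antagonism read as inhibition of agonist-driven secreted luciferase in stably DRE-reporter-transfected cells such as HepG2 AhR-Lucia. Agonist ligand at EC50 concentration added 1 hr post-plating alongside antagonist (log series, top 100 uM); supernatant read at 24 or 48 h, IC50 derived against agonist-only maximum.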

| SMILES | Rat hepatocyte clearance [1] | IC50 (AHR) [nM] |
| --- | --- | --- |
| C[C@@H](CO)n1cnc2c(-c3cccnc3)nc(-c3ccc(C4CC4)nc3)cc2c1=O [Compound 74] | ++ (“++” indicates a CLint between 20 and 50 mL/min/Kg) | < 100 |
| C[C@@H](CO)n1cnc2c(-c3cccc(F)c3)nc(-c3ccc(C(F)(F)F)nc3)cc2c1=O [Compound 8] | ++ (“++” indicates a CLint between 20 and 50 mL/min/Kg) | < 100 |
| Cn1cc(-c2nc(-c3ccc(C(F)(F)F)cn3)cc3c(=O)n(CC(C)(C)O)cnc23)cn1 [Compound 103, 3-(2-hydroxy-2-methylpropyl)-8-(1-methyl-1H-pyrazol-4-yl)-6-(5-(trifluoromethyl)pyridin-2-yl)pyrido[3,4-d]pyrimidin-4(3H)-one] | ++ (“++” indicates a CLint between 20 and 50 mL/min/Kg) | < 100 |
| C[C@@H](n1cnc2c(-c3cnn(C)c3)nc(-c3ccc(Cl)cc3)cc2c1=O)C(C)(C)O [Compound 31] | ++ (“++” indicates a CLint between 20 and 50 mL/min/Kg) | < 100 |
| C[C@@H](CO)n1cnc2c(-c3cncc(F)c3)nc(-c3ccc(OC(F)(F)F)cc3)cc2c1=O [Compound 1, (S)-8-(5-fluoropyridin-3-yl)-3-(1-hydroxypropan-2-yl)-6-(4-(trifluoromethoxy)phenyl)pyrido[3,4-d]pyrimidin-4(3H)-one] | ++ (“++” indicates a CLint between 20 and 50 mL/min/Kg) | < 100 |
| O=c1c2cc(-c3ccc(Cl)cc3)nc(-c3cccnc3)c2ncn1C[C@@H](O)C(F)(F)F (single isomer, unassigned) [185 enantiomer 1] | ++ (“++” indicates a CLint between 20 and 50 mL/min/Kg) | < 100 |
| C[C@@H](n1cnc2c(-c3cccnc3)nc(-c3ccc(Cl)cc3)cc2c1=O)C(C)(C)O [Compound 33] | ++ (“++” indicates a CLint between 20 and 50 mL/min/Kg) | < 100 |
| Cn1cc(-c2nc(-c3ccc(Cl)cc3)cc3c(=O)n(CC(C)(C)O)cnc23)cn1 [Compound 21] | +++ (“+++” indicates a CLint value less than 20 mL/min/Kg) | < 100 |
| C[C@@H](CO)n1cnc2c(-c3cnn(C)c3)nc(-c3ccc(Cl)cc3)cc2c1=O [Compound 27] | +++ (“+++” indicates a CLint value less than 20 mL/min/Kg) | < 100 |
| C[C@H](O)Cn1cnc2c(-c3cnn(C)c3)nc(-c3ccc(C(F)(F)F)nc3)cc2c1=O [Compound 109, (S)-3-(2-hydroxypropyl)-8-(1-methyl-1H-pyrazol-4-yl)-6-(6-(trifluoromethyl)pyridin-3-yl)pyrido[3,4-d]pyrimidin-4(3H)-one] |  | < 100 |
| Cn1cc(-c2nc(-c3ccc(C(F)(F)F)nc3)cc3c(=O)n([C@@H]4COC[C@H]4O)cnc23)cn1 [Compound 115, 3-((3R,4S)-4-hydroxytetrahydrofuran-3-y1)-8-(1-methyl-1H-pyrazol-4-y1)-6-(6-(trifluoromethyl)pyridin-3-yl)pyrido[3,4-d]pyrimidin-4(3H)-one] |  | < 100 |
| C[C@@H](CO)n1cnc2c(-n3ccnc3)nc(-c3ccc(OC(F)(F)F)cc3)cc2c1=O [Compound 44, (S)-3-(1-hydroxypropan-2-yl)-8-(1H-imidazol-1-yl)-6-(4-(trifluoromethoxy)-phenyl)pyrido[3,4-d]pyrimidin-4(3H)-one] | +++ (“+++” indicates a CLint value less than 20 mL/min/Kg) | < 100 |
| C[C@@H](CO)n1cnc2c(-c3cnsc3)nc(-c3ccc(C(F)(F)F)cn3)cc2c1=O [Compound 102, (S)-3-(1-hydroxypropan-2-y1)-8-(isothiazol-4-yl)-6-(5-(trifluoromethyl)pyridin-2-yl)pyrido[3,4-d]pyrimidin-4(3H)-one] |  | < 100 |
| O=c1c2cc(-c3ccc(Cl)cc3)nc(-c3cccnc3)c2ncn1C[C@H](O)C(F)(F)F (single isomer, unassigned) [185 enantiomer 2] | ++ (“++” indicates a CLint between 20 and 50 mL/min/Kg) | < 100 |
| C[C@@H](CO)n1cnc2c(-c3cccnc3)nc(-c3cnc(C(F)(F)F)nc3)cc2c1=O [Compound 86] |  | < 100 |
| CC(C)(O)Cn1cnc2c(-c3cnsc3)nc(-c3ccc(C(F)(F)F)nc3)cc2c1=O [Compound 54] |  | < 100 |
| Cn1cc(-c2nc(-c3ccc(C(F)(F)F)cn3)cc3c(=O)n([C@H]4COC[C@H]4O)cnc23)cn1 [Compound 151, 3-((3S,4S)-4-hydroxytetrahydrofuran-3-yl)-8-(1-methyl-1H-pyrazol-4-yl)-6-(5-(trifluoromethyl)pyridin-2-yl)pyrido[3,4-d]pyrimidin-4(3H)-one] |  | < 100 |
| C[C@@H](O)Cn1cnc2c(-c3cccnc3)nc(-c3ccc(C(F)(F)F)cn3)cc2c1=O [Compound 144, (R)-3-(2-hydroxypropyl)-8-(pyridin-3-yl)-6-(5-(trifluoromethyl)pyridin-2-yl)pyrido[3,4-d]pyrimidin-4(3H)-one] |  | < 100 |
| Cn1cc(-c2nc(-c3ccc(Cl)cc3)cc3c(=O)n([C@H]4COC[C@H]4O)cnc23)cn1 [Compound 92] |  | < 100 |
| O=c1c2cc(-c3ccc(C(F)(F)F)cn3)nc(-c3cccnc3)c2ncn1[C@@H]1COC[C@H]1O [Compound 140, 3-((3R,4S)-4-hydroxytetrahydrofuran-3-yl)-8-(pyridin-3-yl)-6-(5-(trifluoromethyl)pyridin-2-yl)pyrido[3,4-d]pyrimidin-4(3H)-one] |  | < 100 |
| CC(C)(O)Cn1cnc2c(-c3cn[nH]c3)nc(-c3ccc(C(F)(F)F)nc3)cc2c1=O [Compound 51] |  | < 100 |
| CC(C)(O)Cn1cnc2c(-c3cnsc3)nc(-c3ccc(C(F)(F)F)cn3)cc2c1=O [Compound 101, 3-(2-hydroxy-2-methylpropyl)-8-(isothiazol-4-yl)-6-(5-(trifluoromethyl)pyridin-2-yl)pyrido[3,4-d]pyrimidin-4(3H)-one] |  | < 100 |
| Cn1cc(-c2nc(-c3ccc(C(F)(F)F)nc3)cc3c(=O)n([C@H]4COC[C@H]4O)cnc23)cn1 [Compound 88] |  | < 100 |
| O=c1c2cc(-c3ccc(Cl)cc3)nc(-c3cccnc3)c2ncn1[C@@H]1COC[C@H]1O [Compound 152, 6-(4-chlorophenyl)-3-((3R,4S)-4-hydroxytetrahydrofuran-3-yl)-8-(pyridin-3-yl)pyrido[3,4-d]pyrimidin-4(3H)-one] |  | < 100 |

Source: patent US20230295152A1 (SENDA BIOSCIENCES, INC., priority 2019, published 2023)
